Patent publication US20130018033A1, “RAF INHIBITOR COMPOUNDS AND METHODS OF USE THEREOF” (ARRAY BIOPHARMA INC., priority 2009, published 2013)
Read-outs that look alike come from different tables or passages of the source.

How the values were obtained:
[1] = tested on: subcutaneous LOX xenografts; assay: Tumor growth inhibition (LOX), Example A2; type: in vivo; conditions: female nude mice, LOX xenograft; for Tumor Volume (mm^3) Day 1: 10 mg/kg PO on days 1-4, Day 1; for Tumor Volume (mm^3) Day 3: 10 mg/kg PO on days 1-4, Day 3; for Tumor Volume (mm^3) Day 5: 10 mg/kg PO on days 1-4, Day 5
Experimental: Female nude mice were implanted subcutaneously on the right flank with approximately 3.5×10^6 LOX cells in 100 μL PBS. Five to seven days later, tumors were measured and mice were randomized into groups of six with average tumor volume in each group of approximately 200 mm^3. Examples 3 and 28 were dissolved in 80% PEG400/20% ethanol before dosing, and administered PO at a volume of 5 mL/kg. Dosing was vehicle alone on days 1, 2, 3 and 4; and Examples 3 and 28 at 10 mg/kg on days 1, 2, 3 and 4. Animal weights and tumor volumes were measured using electronic calipers on day 5. Tumor volume was calculated using the formula: volume=(width2×length)/2.

[2] = target: T1, V600E full-length B-Raf (Homo sapiens, UniProt P15056, V600E); assay: B-Raf IC50 assay (Example A); type: biochemical
T1 construct: 1 μM FSBA-MEK and 20 nM V600E full-length B-Raf; made in house; host or cells: Sf9 insect cells (baculovirus)
T1 sequence (P15056 whole entry V600E): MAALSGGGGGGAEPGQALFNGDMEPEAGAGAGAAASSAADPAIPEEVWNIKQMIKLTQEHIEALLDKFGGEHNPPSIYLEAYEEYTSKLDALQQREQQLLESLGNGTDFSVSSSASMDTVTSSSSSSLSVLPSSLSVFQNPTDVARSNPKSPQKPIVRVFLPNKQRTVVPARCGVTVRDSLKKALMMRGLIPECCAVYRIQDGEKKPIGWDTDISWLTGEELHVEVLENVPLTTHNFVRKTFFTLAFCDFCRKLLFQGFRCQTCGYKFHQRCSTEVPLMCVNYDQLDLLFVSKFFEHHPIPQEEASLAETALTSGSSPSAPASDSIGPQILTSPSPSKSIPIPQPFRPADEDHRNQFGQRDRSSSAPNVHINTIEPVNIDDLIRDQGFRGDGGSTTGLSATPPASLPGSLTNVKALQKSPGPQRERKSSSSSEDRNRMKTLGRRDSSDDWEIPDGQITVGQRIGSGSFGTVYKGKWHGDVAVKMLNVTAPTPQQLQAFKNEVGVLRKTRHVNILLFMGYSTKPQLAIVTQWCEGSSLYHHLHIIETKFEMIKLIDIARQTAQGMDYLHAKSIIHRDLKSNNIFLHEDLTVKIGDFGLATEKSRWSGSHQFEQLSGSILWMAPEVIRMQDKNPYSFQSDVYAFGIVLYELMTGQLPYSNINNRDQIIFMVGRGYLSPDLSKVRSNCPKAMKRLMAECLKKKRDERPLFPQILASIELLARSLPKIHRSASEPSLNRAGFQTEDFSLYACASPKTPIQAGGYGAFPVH
How it was run: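 Sf9-expressed full-length V600E B-Raf (20 nM) phosphorylated 1 µM FSBA-modified wild-type MEK with 4 µM ATP plus [γ-33P]ATP in 25 mM Pipes pH 7.2, 100 mM KCl, 10 mM MgCl2. Enzyme and substrate were preincubated 15 min, and the reaction ran 60 min at 22 °C. It was TCA-quenched and filter-captured, and incorporated radioactivity was scintillation-counted.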

[3] = tested on: basal ERK1/2 phosphorylation in Malme-3M cells; assay: Cellular ERK 1/2 phosphorylation assay (Example A1); type: cell-based; conditions: Homo sapiens, 1 hour incubation, pERK normalized to total ERK, read-out: P-ERK Malme3-M IC50
Experimental: Inhibition of basal ERK1/2 phosphorylation was determined by the following in vitro […], which comprises incubating cells with a compound of Formula I for 1 hour and quantifying the fluorescent pERK signal on fixed cells and normalizing to total ERK signal.
Malme-3M cells were obtained from ATCC and grown in RPMI-1640 supplemented with 10% fetal bovine serum. Cells were plated in 96-well plates at 24,000 cells/well and allowed to attach for 16-20 hours at 37° C., 5% CO2. The media was removed, and DMSO-diluted compounds were added in RPMI-1640 at a final concentration of 1% DMSO. The cells were incubated with the compounds for 1 hour at 37° C., 5% CO2. The cells were washed with PBS and fixed in 3.7% formaldehyde in PBS for 15 minutes. This was followed by washing in PBS/0.05% Tween20 and permeabilizing in −20° C. 100% MeOH for 15 minutes. Cells were washed in PBS/0.05% Tween20 then blocked in Odyssey blocking buffer (LI-COR Biosciences) for 1 hour. Antibodies to phosphorylated ERK (1:400, Cell Signaling #9106, monoclonal) and total ERK (1:400, Santa Cruz Biotechnology #sc-94, polyclonal) were added to the cells and incubated 16-20 hours at 4° C. After washing with PBS/0.05% Tween20, the cells were incubated with fluorescently-labeled secondary antibodies (1:1000 goat anti-rabbit IgG-IRDye800, Rockland and 1:500 goat anti-mouse IgG-Alexa Fluor 680, Molecular Probes) for an additional hour. Cells were then washed and analyzed for fluorescence at both wavelengths using the Odyssey Infrared Imaging System (LI-COR Biosciences). Phosphorylated ERK signal was normalized to total ERK signal.

[4] = B-Raf V600E assay of Example A, read-out: IC50
[5] = [γ-33P]ATP incorporation into FSBA-MEK, 4 μM ATP, read-out: BRAF V600E IC50

Row | Compound | Tumor Volume (mm^3) Day 1 [1] [mm^3] | Tumor Volume (mm^3) Day 3 [1] [mm^3] | Tumor Volume (mm^3) Day 5 [1] [mm^3] | IC50 [2, 4] [µM] | IC50 ([2]; BRAF V600E IC50 (μM), [γ-33P]ATP incorporation into FSBA-MEK, 4 μM ATP) [µM] | IC50 [3] [nM] | IC50 [2, 5] [µM]
1 | CCCS(=O)(=O)Nc1ccc(F)c(NC(=O)c2cccc3c(N)ncnc23)c1Cl [Example 3, 4-Amino-quinazoline-8-carboxylic acid [2-chloro-6-fluoro-3-(propane-1-sulfonylamino)-phenyl]-amide] | 190.33 | 151.33 | 118.41 | < 0.1 | 0.00053 | 7.23 | –
2 | CCCS(=O)(=O)Nc1ccc(F)c(NC(=O)c2cccc3c(N)ncnc23)c1C#N [Example 28, 4-Amino-quinazoline-8-carboxylic acid [2-cyano-6-fluoro-3-(propane-1-sulfonylamino)-phenyl]-amide] | 190.71 | 176.38 | 219.31 | < 0.1 | – | 14.4 | 0.00011
3 | O=C(Nc1c(F)ccc(NS(=O)(=O)CC2CC2)c1F)c1cccc2cncnc12 [Example 56, Quinazoline-8-carboxylic acid (3-cyclopropylmethane-sulfonylamino-2,6-difluoro-phenyl)-amide] | – | – | – | < 1 | – | 638 | 0.204
4 | O=C(Nc1c(Cl)ccc(NS(=O)(=O)CCCF)c1Cl)c1cccc2cncnc12 [Example 57, Quinazoline-8-carboxylic acid [2,6-dichloro-3-(3-fluoro-propane-1-sulfonylamino)-phenyl]-amide] | – | – | – | < 0.1 | – | 87.6 | 0.00096
5 | CCCS(=O)(=O)Nc1ccc(Cl)c(NC(=O)c2cccc3cncnc23)c1F [Example 58, Quinazoline-8-carboxylic acid [6-chloro-2-fluoro-3-(propane-1-sulfonylamino)-phenyl]-amide] | – | – | – | < 0.1 | – | 301 | 0.0171
6 | O=C(Nc1c(Cl)ccc(NS(=O)(=O)CCCF)c1F)c1cccc2cncnc12 [Example 59, Quinazoline-8-carboxylic acid [6-chloro-2-fluoro-3-(3-fluoro-propane-1-sulfonylamino)-phenyl]-amide] | – | – | – | < 0.1 | – | 83.7 | 0.00149
7 | Cc1ncnc2c(C(=O)Nc3c(Cl)ccc(NS(=O)(=O)CCCF)c3Cl)cccc12 [Example 60, 4-Methyl-quinazoline-8-carboxylic acid [2,6-dichloro-3-(3-fluoro-propane-1-sulfonylamino)-phenyl]-amide] | – | – | – | < 0.1 | – | 53.4 | 0.00082
8 | Cc1ncnc2c(C(=O)Nc3c(F)ccc(NS(=O)(=O)CCCF)c3F)cccc12 [Example 61, 4-Methyl-quinazoline-8-carboxylic acid [2,6-difluoro-3-(3-fluoro-propane-1-sulfonylamino)-phenyl]-amide] | – | – | – | < 0.1 | – | 116 | 0.0193
9 | Cc1ncnc2c(C(=O)Nc3c(Cl)ccc(NS(=O)(=O)CCCF)c3F)cccc12 [Example 62, 4-Methyl-quinazoline-8-carboxylic acid [6-chloro-2-fluoro-3-(3-fluoro-propane-1-sulfonylamino)-phenyl]-amide] | – | – | – | < 0.1 | – | 44 | 0.00307
10 | CCCS(=O)(=O)Nc1ccc(F)c(NC(=O)c2ccnc3c(N)ncnc23)c1Cl [Example 63, 4-Amino-pyrido[3,2-d]pyrimidine-8-carboxylic acid [2-chloro-6-fluoro-3-(propane-1-sulfonylamino)-phenyl]-amide] | – | – | – | < 0.1 | – | 7.6 | 0.00101
11 | CCCS(=O)(=O)Nc1ccc(F)c(NC(=O)c2ccnc3c(N)ncnc23)c1F [Example 64, 4-Amino-pyrido[3,2-d]pyrimidine-8-carboxylic acid [2,6-difluoro-3-(propane-1-sulfonylamino)-phenyl]-amide] | – | – | – | < 0.1 | – | 9.7 | 0.00311
12 | CCCS(=O)(=O)Nc1ccc(Cl)c(NC(=O)c2ccnc3c(N)ncnc23)c1F [Example 65, 4-Amino-pyrido[3,2-d]pyrimidine-8-carboxylic acid [6-chloro-2-fluoro-3-(propane-1-sulfonylamino)-phenyl]-amide] | – | – | – | < 0.1 | – | 9.4 | 0.00114
13 | Nc1ncnc2c(C(=O)Nc3c(F)ccc(NS(=O)(=O)CCCF)c3F)ccnc12 [Example 66, 4-Amino-pyrido[3,2-d]pyrimidine-8-carboxylic acid [2,6-difluoro-3-(3-fluoro-propane-1-sulfonylamino)-phenyl]-amide] | – | – | – | < 0.1 | – | 3.04 | 0.00075
14 | Nc1ncnc2c(C(=O)Nc3c(Cl)ccc(NS(=O)(=O)CCCF)c3F)ccnc12 [Example 67, 4-Amino-pyrido[3,2-d]pyrimidine-8-carboxylic acid [6-chloro-2-fluoro-3-(3-fluoro-propane-1-sulfonylamino)-phenyl]-amide] | – | – | – | < 0.1 | – | 2.8 | 0.00042
15 | NC(=O)c1ccc(NS(=O)(=O)CCCF)c(F)c1NC(=O)c1ccnc2c(N)ncnc12 [Example 68, 4-Amino-pyrido[3,2-d]pyrimidine-8-carboxylic acid [6-carbamoyl-2-fluoro-3-(3-fluoro-propane-1-sulfonylamino)-phenyl]-amide] | – | – | – | < 0.1 | – | 124 | 0.0145
16 | CCCS(=O)(=O)Nc1ccc(C#N)c(NC(=O)c2ccnc3c(N)ncnc23)c1F [Example 69, 4-Amino-pyrido[3,2-d]pyrimidine-8-carboxylic acid [6-cyano-2-fluoro-3-(propane-1-sulfonylamino)-phenyl]-amide] | – | – | – | < 0.1 | – | 306 | 0.0195
17 | CCCS(=O)(=O)Nc1ccc(F)c(NC(=O)c2cc(C)cc3c(N)ncnc23)c1F [Example 70, 4-Amino-6-methyl-quinazoline-8-carboxylic acid [2,6-difluoro-3-(propane-1-sulfonylamino)-phenyl]-amide] | – | – | – | < 0.1 | – | 8.59 | 0.0014
18 | CCCS(=O)(=O)Nc1ccc(F)c(NC(=O)c2cc(C)cc3c(N)ncnc23)c1Cl [Example 77, 4-Amino-6-methyl-quinazoline-8-carboxylic acid [2-chloro-6-fluoro-3-(propane-1-sulfonylamino)-phenyl]-amide] | – | – | – | < 0.1 | – | 7.83 | 0.00045
19 | CCCS(=O)(=O)Nc1ccc(F)c(NC(=O)c2cc(F)cc3c(N)ncnc23)c1Cl [Example 78, 4-Amino-6-fluoro-quinazoline-8-carboxylic acid [2-chloro-6-fluoro-3-(propane-1-sulfonylamino)-phenyl]-amide] | – | – | – | < 0.1 | – | 15.7 | 0.00049
20 | CCCS(=O)(=O)Nc1ccc(F)c(NC(=O)c2cc(C)cc3cncnc23)c1F [Example 79, 6-Methyl-quinazoline-8-carboxylic acid [2,6-difluoro-3-(propane-1-sulfonylamino)-phenyl]-amide] | – | – | – | < 0.1 | – | 254 | 0.0588
